Data from patent US10342796B2, “Acrylanilide derivative, preparation method, and applications thereof in pharmacy” (Ancureall Pharmaceutical (Shanghai) Co., Ltd., priority 2015, dated 2019).

What was measured:
Assay in all cases: Growth inhibition GI50 in vitro (CCK8/MTT, 72 h)
Type in all cases: cell-based, human
[1] = tested on: H1975 (EGFR L858R/T790M); conditions: Homo sapiens, NCI-H1975; EGFR mutant cell line; range of GI50; read-out: GI50 H1975
[2] = tested on: PC-9ER (EGFR delE746-A750/T790M); conditions: Homo sapiens, PC-9/ER; EGFR mutant cell line; range of GI50; read-out: GI50 PC9ER
[3] = tested on: HCC827 (EGFR dE746-A750); conditions: Homo sapiens, HCC827; EGFR mutant cell line; range of GI50; read-out: GI50 HCC827
[4] = tested on: PC-9 (EGFR dE746-A750); conditions: Homo sapiens; EGFR mutant cell line; range of GI50; read-out: GI50 PC-9
[5] = tested on: N87 (HER2 Amp); conditions: Homo sapiens; HER2 positive cell line; range of GI50; read-out: GI50 N87
[6] = tested on: SK-BR-3 (Her2 amp); conditions: Homo sapiens, SK-BR-3; HER2 positive cell line; range of GI50; read-out: GI50 SK-BR-3
Experimental: Human lung adenocarcinoma cell line Calu-3 (ATCC) was cultured with 1×MEM complete medium (10% FBS, 1% double-antibiotics, 1% NEAA (Gibco), 2 mM glutamine and 1 mM of sodium pyruvate). Human breast cancer cell line SK-BR-3 was cultured with McCOY'S5A complete medium (10% FBS). Human colon cancer cell line SNU1040 (HER2 V777M positive) (ATCC) and human bronchoalveolar adenocarcinoma cell line NCI-H1781 (expressing HER2 exon 20 G776VC mutation) (ATCC) were cultured with 1×RPMI1640 complete medium (10% FBS), respectively.
The suspension cells were collected by centrifugation. The supernatant was discard and the cell pellet was resuspended and counted. Different cell concentrations (5˜10×10^4 cells/mL) were prepared according to the growth cycle of each cell line and then seeded on a 96-well plate (Corning), 100 μL/well. The cells were incubated over night at 37° C., 5% CO2. The compounds were added to the cells on the second day with 2 wells in parallel. The final concentration of organic solvent shall not exceed 1%. The cells were continually incubated for 72 h, and then subjected to MTT assay.
The present compounds and the reference compounds were dissolved with DMSO (Sigma), respectively. […] The storage concentration of compounds was 10 mM and kept at −20° C. They were diluted by 2 times or 10 times with serial dilution before using.
Dojindo CCK8 reagent kit was used as MTT assay. […] FC meter was used as microplate reader.
Adherent cell culture medium was discard and immediately replaced with fresh prepared medium which contains 10% CCK8 reagent (100 μL/well). For the suspension cells, CCK8 was directly added to 10% of the final concentration. The cells were continually incubated for 1˜4 h. When the color of control wells turned to dark yellow, the absorption value was measured at OD450 nm. The cell growth rate was calculated according to the following formula: cell growth rate (%)=100*(T−T0)/(C−T0), T=optical density of drug treatment cell well—optical density of blank control well; T0=optical density of cell well before drug treatment—optical density of blank control well; C=optical density of cell well of solvent control group—optical density of blank control well. […] The experiment was independently repeated 1˜3 times, and subject to biological statistical analysis.

[7] = tested on: H460 (EGFR wt, Kras G61H); conditions: Homo sapiens, NCI-H460; EGFR wild type cell line; range of GI50; read-out: GI50 H460
[8] = tested on: A549 (EGFR WT); conditions: Homo sapiens, A549; EGFR wild type cell line; range of GI50; read-out: GI50 A549
[9] = tested on: H1299 (EGFR wt, Nras Q61K); conditions: Homo sapiens, NCI-H1299; EGFR wild type cell line; range of GI50; read-out: GI50 H1299
[10] = tested on: A431 (EGFR WT, amplification and high expression); conditions: Homo sapiens, A-431; EGFR wild type cell line; range of GI50; read-out: GI50 A431
[11] = tested on: AU565 (Her2 amp); conditions: Homo sapiens, AU565; HER2 positive cell line; range of GI50; read-out: GI50 AU-565

Compound	GI50 [1] [nM]	GI50 [2] [nM]	GI50 [3] [nM]	GI50 [4] [nM]	GI50 [5] [nM]	GI50 [6] [nM]	GI50 [7] [nM]	GI50 [8] [nM]	GI50 [9] [nM]	GI50 [10] [nM]	GI50 [11] [nM]
C=CC(=O)Nc1cc(Nc2nccc(-n3cc(C)c4ccccc43)n2)c(OC)cc1N(C)CCN(C)C [Compound 57, N-(5-(4-(3-methyl-1H-indol-1-yl)-pyrimidin-2-ylamino)-2-(2-(dimethylamino-ethyl)-methyl-amino)-4-methoxyl-phenyl)-acrylamide]	10 to 100	10 to 100	10 to 100	100 to 1000	100 to 1000	100 to 1000	> 1000	> 1000	> 1000	100 to 1000	100 to 1000
C=CC(=O)Nc1cc(Nc2nccc(-n3ccc4ccc(OC)cc43)n2)c(OC)cc1N(C)CCN(C)C [Compound 58]	10 to 100	10 to 100	10 to 100	10 to 100	100 to 1000	100 to 1000	> 1000	> 1000	> 1000	100 to 1000	100 to 1000
C=CC(=O)Nc1cc(Nc2nccc(-n3ccc4ccc(C)cc43)n2)c(OC)cc1N(C)CCN(C)C [Compound 59]	10 to 100	10 to 100	10 to 100	10 to 100	100 to 1000	100 to 1000	> 1000	> 1000	> 1000	100 to 1000	100 to 1000
C=CC(=O)Nc1cc(Nc2nccc(-n3ccc4ccc(C#N)cc43)n2)c(OC)cc1N(C)CCN(C)C [Compound 60, N-{5-[4-(6-cyano-indol-1-yl)-pyrimidin-2-ylamino]-2-[(2-dimethylamino-ethyl)-methyl-amino]-4-methoxyl-phenyl}-acrylamidel]	100 to 1000	100 to 1000	100 to 1000	100 to 1000	100 to 1000	100 to 1000	> 1000	> 1000	> 1000	> 1000	100 to 1000
C=CC(=O)Nc1cc(Nc2nccc(-n3ccc4ccc(Cl)cc43)n2)c(OC)cc1N(C)CCN(C)C [Compound 61, N-(5-(4-(6-chloro-1H-indol-1-yl)-pyrimidin-2-ylamino)-2-((2-(dimethylamino)ethyl)-methyl-amino)-4-methoxyl-phenyl)-acrylamide]	< 10	< 10	10 to 100	10 to 100	100 to 1000	100 to 1000	> 1000	> 1000	> 1000	100 to 1000	100 to 1000
C=CC(=O)Nc1cc(Nc2nccc(-n3ccc4ccc(Br)cc43)n2)c(OC)cc1N(C)CCN(C)C [Compound 62, N-(5-(4-(6-bromo-1H-indol-1-yl)-pyrimidin-2-ylamino)-2-((2-(dimethylamino)ethyl)-methyl-amino)-4-methoxyl-phenyl)-acrylamide]	10 to 100	10 to 100	< 10	10 to 100	10 to 100	10 to 100	> 1000	> 1000	> 1000	100 to 1000	10 to 100
C=CC(=O)Nc1cc(Nc2nccc(-n3ccc4cc(C)ccc43)n2)c(OC)cc1N(C)CCN(C)C [Compound 77, N-(5-(4-(5-methyl-1H-indol-1-yl)-pyrimidin-2-ylamino)-2-((2-dimethylamino-ethyl)-methyl-amino)-4-methoxyl-phenyl)-acrylamide]	10 to 100	10 to 100	100 to 1000	100 to 1000	100 to 1000	100 to 1000	> 1000	> 1000	> 1000	100 to 1000	100 to 1000
C=CC(=O)Nc1cc(Nc2nccc(-n3ccc4cc(OC)ccc43)n2)c(OC)cc1N(C)CCN(C)C [Compound 78, N-(5-(4-(5-methoxyl-1H-indol-1-yl)-pyrimidin-2-ylamino)-2-((2-dimethylamino-ethyl)-methyl-amino)-4-methoxyl-phenyl)-acrylamide]	< 10	10 to 100	10 to 100	10 to 100	< 10	10 to 100	> 1000	> 1000	> 1000	100 to 1000	10 to 100
C=CC(=O)Nc1cc(Nc2nccc(-n3ccc4cc(F)ccc43)n2)c(OC)cc1N(C)CCN(C)C [Compound 83]	< 10	10 to 100	< 10	10 to 100	10 to 100	100 to 1000	> 1000	> 1000	> 1000	100 to 1000	100 to 1000
C=CC(=O)Nc1cc(Nc2nccc(-n3ccc4c(C)cccc43)n2)c(OC)cc1N(C)CCN(C)C [Compound 98, N-(5-(4-(4-methyl-1H-indol-1-yl)-pyrimidin-2-ylamino)-2-(2-(dimethylamino-ethyl)-methyl-amino)-4-methoxyl-phenyl)-acrylamide]	10 to 100	10 to 100	10 to 100	10 to 100	10 to 100	10 to 100	> 1000	> 1000	> 1000	100 to 1000	100 to 1000
C=CC(=O)Nc1cc(Nc2nccc(-n3ccc4cc(F)c(F)cc43)n2)c(OC)cc1N(C)CCN(C)C [Compound 103, N-(5-(4-(5,6-difluoro-1H-indol-1-yl)-pyrimidin-2-ylamino)-2-(2-(dimethylamino-ethyl)-methyl-amino)-4-methoxyl-phenyl)-acrylamide]	10 to 100	10 to 100	10 to 100	10 to 100	10 to 100	100 to 1000	> 1000	> 1000	> 1000	100 to 1000	100 to 1000
C=CC(=O)Nc1cc(Nc2nccc(-n3nnc4ccccc43)n2)c(OC)cc1N(C)CCN(C)C [Compound 107]	10 to 100	10 to 100	10 to 100	10 to 100	10 to 100	10 to 100	> 1000	> 1000	> 1000	> 1000	100 to 1000
C=CC(=O)Nc1cc(Nc2ncnc(Nc3cccc(Cl)c3)n2)c(OC)cc1N(C)CCN(C)C [Compound 108, N-(5-(4-(3-chloro-phenylamino)-[1,3,5]triazin-2-ylamino)-2-((2-dimethylamino-ethyl)-methyl-amino)-4-methoxyl-phenyl)-acrylamide]	10 to 100	< 10	< 10	< 10	< 10	10 to 100	> 1000	> 1000	> 1000	100 to 1000	10 to 100
